Data on 23 molecules can be found in patent publication US11254663B2 (BRISTOL-MYERS SQUIBB COMPANY, priority 2019, dated 2022).

This test concerns the target FXR (Homo sapiens (Human), UniProt Q96RI1). Description: transient human FXR/Gal4-luciferase reporter assay. Type of test: cell-based. Put shortly: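 Compound exposure ran overnight at 37 °C and activity was measured as luminescence with Steady-Glo reagent. The cells were a HEK293 line stably expressing firefly luciferase under five Gal4 response elements. They were transiently transfected, one night beforehand, with a plasmid encoding Gal4 DNA-binding domain fused to the human FXR ligand-binding domain.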

[1] abbreviates: Gal4-hFXR fusion construct, HEK293 reporter cells, response relative to 8 μM GW-4064.

Read-outs that look alike come from different tables or passages of the source.

Chain of FXR (Q96RI1 262-486): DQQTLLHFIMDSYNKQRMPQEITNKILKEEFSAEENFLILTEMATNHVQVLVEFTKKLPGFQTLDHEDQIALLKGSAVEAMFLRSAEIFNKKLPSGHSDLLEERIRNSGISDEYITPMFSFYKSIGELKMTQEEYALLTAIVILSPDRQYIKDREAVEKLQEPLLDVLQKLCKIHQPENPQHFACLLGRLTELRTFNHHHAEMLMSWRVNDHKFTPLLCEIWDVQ

By EC50 is commonly meant the midpoint of the concentration-response curve. Consider `CCOc1ncc(-c2cccc(N(CC34CCC(c5nc(C(C)(C)C)no5)(CC3)CC4)C(=O)C3(C)COC3)c2)cn1` [Example 503, N-((4-(3-(tert-butyl)-1,2,4-oxadiazol-5-yl)bicyclo[2.2.2]octan-1-yl)methyl)-N-(3-(2-ethoxypyrimidin-5-yl)phenyl)-3-methyloxetane-3-carboxamide], for which the response was half-maximal at 1580 nM (EC50). Regarding `COc1cc(-c2cccc(N(CC34CCC(c5nnc(C)s5)(CC3)CC4)C(=O)C3CCC(F)(F)C3)c2)ccn1` (centres unmarked) [Example 235, 3,3-difluoro-N-(3-(2-methoxypyridin-4-yl)phenyl)-N-((4-(5-methyl-1,3,4-thiadiazol-2-yl)bicyclo[2.2.2]octan-1-yl)methyl)cyclopentane-1-carboxamide], under setting [1], the EC50 came out at 895 nM. On the same count and under the same terms, in the case of `O=C(N(CC12CCC(c3nc(C4CC4)no3)(CC1)CC2)c1cccc(-c2ccn3ncnc3c2)c1)C12CC(F)(C1)C2` [Example 298, N-(3-([1,2,4]triazolo[1,5-a]pyridin-7-yl)phenyl)-N-((4-(3-cyclopropyl-1,2,4-oxadiazol-5-yl)bicyclo[2.2.2]octan-1-yl)methyl)-3-fluorobicyclo[1.1.1]pentane-1-carboxamide] it was 1680 nM; in that of `COc1ccc(C23CCC(CN(C(=O)C45CC(F)(C4)C5)c4cccc(-c5ccc6nc(C)sc6c5)c4)(CC2)CO3)cc1` [Example 556, 3-Fluoro-N-((1-(4-methoxyphenyl)-2-oxabicyclo[2.2.2]octan-4-yl)methyl)-N-(3-(2-methylbenzo[d]thiazol-6-yl)phenyl)bicyclo[1.1.1]pentane-1-carboxamide], 816 nM.

Turning to `COc1ccc(-c2cccc(N(CC34CCC(c5nc(C(C)C)no5)(CC3)CC4)C(=O)C34CC(F)(C3)C4)c2)cn1` [Example 382, 3-fluoro-N-((4-(3-isopropyl-1,2,4-oxadiazol-5-yl)bicyclo[2.2.2]octan-1-yl)methyl)-N-(3-(6-methoxypyridin-3-yl)phenyl)bicyclo[1.1.1]pentane-1-carboxamide], the EC50 under setting [1] is 98 nM. Under setting [1], `COc1ccc(-c2cccc(N(CC34CCC(c5nnc(C6CC6)o5)(CC3)CC4)C(=O)C34CC(F)(C3)C4)c2)cn1` [Example 343, N-((4-(5-cyclopropyl-1,3,4-oxadiazol-2-yl)bicyclo[2.2.2]octan-1-yl)methyl)-3-fluoro-N-(3-(6-methoxypyridin-3-yl)phenyl)bicyclo[1.1.1]pentane-1-carboxamide] returned an EC50 of 154 nM. This EC50 lies about 1.6-fold higher than the previous one. The same measure, in the same setting: the same measure for `CC(C)(O)c1ccc(-c2cc(N(CC34CCC(c5noc(C(C)(C)F)n5)(CC3)CC4)C(=O)OC(C)(C)C(F)(F)F)ncc2F)cc1` [Example 620, 1,1,1-trifluoro-2-methylpropan-2-yl(5-fluoro-4-(4-(2-hydroxypropan-2-yl)phenyl)pyridin-2-yl)((4-(5-(2-fluoropropan-2-yl)-1,2,4-oxadiazol-3-yl)bicyclo[2.2.2]octan-1-yl)methyl) carbamate]: 29 nM. Consider `CCOc1ccc(-c2cncc(N(CC34CCC(c5nc(C(C)(C)C)no5)(CC3)CC4)C(=O)C34CC(F)(C3)C4)c2)cc1` [Example 476, N-((4-(3-(tert-butyl)-1,2,4-oxadiazol-5-yl)bicyclo[2.2.2]octan-1-yl)methyl)-N-(5-(4-ethoxyphenyl)pyridin-3-yl)-3-fluorobicyclo[1.1.1]pentane-1-carboxamide], for which it took 560 nM to reach a half-maximal effect (EC50). In turn, `Cc1nc2ccc(-c3cccc(N(CC45CCC(c6nc(C(C)(C)C)no6)(CC4)CC5)C(=O)C45CC(F)(C4)C5)c3)cc2s1` [Example 362, N-((4-(3-(tert-butyl)-1,2,4-oxadiazol-5-yl)bicyclo[2.2.2]octan-1-yl)methyl)-3-fluoro-N-(3-(2-methylbenzo[d]thiazol-6-yl)phenyl)bicyclo[1.1.1]pentane-1-carboxamide] yielded an EC50 under setting [1] of 204 nM.

On to `COc1cc(-c2cccc(N(CC34CCC(c5nc(C6CC6)no5)(CC3)CC4)C(=O)C34CC(F)(C3)C4)c2)ccc1F` [Example 260, N-((4-(3-cyclopropyl-1,2,4-oxadiazol-5-yl)bicyclo[2.2.2]octan-1-yl)methyl)-3-fluoro-N-(4′-fluoro-3′-methoxy-[1,1′-biphenyl]-3-yl)bicyclo[1.1.1]pentane-1-carboxamide], for which the EC50 under setting [1] was 693 nM. Same read-out and setting: the same measure for `O=C(N(CC12CCC(c3nc(C4CC4)no3)(CC1)CC2)c1cccc(-c2cc(Cl)cc(Cl)c2)c1)C12CC(F)(C1)C2` [Example 250, N-((4-(3-cyclopropyl-1,2,4-oxadiazol-5-yl)bicyclo[2.2.2]octan-1-yl)methyl)-N-(3′,5′-dichloro-[1,1′-biphenyl]-3-yl)-3-fluorobicyclo[1.1.1]pentane-1-carboxamide]: 778 nM; for `O=C(N(CC12CCC(c3nc(C4CC4)no3)(CC1)CC2)c1cccc(-c2cnc3cccnn23)c1)C12CC(F)(C1)C2` [Example 318, N-((4-(3-cyclopropyl-1,2,4-oxadiazol-5-yl)bicyclo[2.2.2]octan-1-yl)methyl)-3-fluoro-N-(3-(imidazo[1,2-b]pyridazin-3-yl)phenyl)bicyclo[1.1.1]pentane-1-carboxamide]: 172 nM; for `CCOc1ncc(-c2cc(N(CC34CCC(c5noc(C(C)(C)C)n5)(CC3)CC4)C(=O)C34CC(F)(C3)C4)ccn2)cn1` [Example 596, N-((4-(5-(tert-butyl)-1,2,4-oxadiazol-3-yl)bicyclo[2.2.2]octan-1-yl)methyl)-N-(2-(2-ethoxypyrimidin-5-yl)pyridin-4-yl)-3-fluorobicyclo[1.1.1]pentane-1-carboxamide]: 321 nM. Still for that read-out and setting: in the case of `CS(=O)(=O)Nc1ccc(-c2cccc(N(CC34CCC(c5cc(C(F)(F)F)ccn5)(CC3)CC4)C(=O)C34CC(F)(C3)C4)c2)cc1` [Example 355, 3-fluoro-N-(4′-(methylsulfonamido)-[1,1′-biphenyl]-3-yl)-N-((4-(4-(trifluoromethyl)pyridin-2-yl)bicyclo[2.2.2]octan-1-yl)methyl)bicyclo[1.1.1]pentane-1-carboxamide] it was 780 nM; in that of `O=C(N(CC12CCC(c3nc(C4CC4)no3)(CC1)CC2)c1cccc(-c2nc(Cl)nn3cccc23)c1)C12CC(F)(C1)C2` [Example 315, N-(3-(2-chloropyrrolo[2,1-f][1,2,4]triazin-4-yl)phenyl)-N-((4-(3-cyclopropyl-1,2,4-oxadiazol-5-yl)bicyclo[2.2.2]octan-1-yl)methyl)-3-fluorobicyclo[1.1.1]pentane-1-carboxamide], 913 nM; in that of `O=C1Cc2cc(-c3cccc(N(CC45CCC(c6nc(C7CC7)no6)(CC4)CC5)C(=O)C45CC(F)(C4)C5)c3)ccc2N1` [Example 332, N-((4-(3-cyclopropyl-1,2,4-oxadiazol-5-yl)bicyclo[2.2.2]octan-1-yl)methyl)-3-fluoro-N-(3-(2-oxoindolin-5-yl)phenyl)bicyclo[1.1.1]pentane-1-carboxamide], 158 nM. On to `COc1cc(-c2cccc(N(CC34CCC(c5ccnc(C)c5)(CC3)CC4)C(=O)C3CC(F)(F)C3)c2)ccn1` [Example 237, 3,3-Difluoro-N-(3-(2-methoxypyridin-4-yl)phenyl)-N-((4-(2-methylpyridin-4-yl)bicyclo[2.2.2]octan-1-yl)methyl)cyclobutane-1-carboxamide], for which the EC50 under setting [1] is 541 nM. The same measure, in the same setting: in the case of `CC(C)(C)c1noc(C23CCC(CN(C(=O)C45CC(F)(C4)C5)c4cccc(-c5ncc(OC(F)F)cn5)c4)(CC2)CC3)n1` [Example 371, N-((4-(3-(tert-butyl)-1,2,4-oxadiazol-5-yl)bicyclo[2.2.2]octan-1-yl)methyl)-N-(3-(5-(difluoromethoxy)pyrimidin-2-yl)phenyl)-3-fluorobicyclo[1.1.1]pentane-1-carboxamide] it was 45 nM. Turning to `COCc1ccc(-c2cccc(N(CC34CCC(c5nc(C(C)C)no5)(CC3)CC4)C(=O)C34CC(F)(C3)C4)c2)cn1` [Example 391, 3-fluoro-N-((4-(3-isopropyl-1,2,4-oxadiazol-5-yl)bicyclo[2.2.2]octan-1-yl)methyl)-N-(3-(6-(methoxymethyl)pyridin-3-yl)phenyl)bicyclo[1.1.1]pentane-1-carboxamide], the midpoint of the response under setting [1], the EC50, lay at 147 nM. Still for that read-out and setting: the same measure for `N#Cc1ccc(-c2cccc(N(CC34CCC(c5nc(C6CC6)no5)(CC3)CC4)C(=O)C34CC(F)(C3)C4)c2)c2cccnc12` [Example 311, N-(3-(8-cyanoquinolin-5-yl)phenyl)-N-((4-(3-cyclopropyl-1,2,4-oxadiazol-5-yl)bicyclo[2.2.2]octan-1-yl)methyl)-3-fluorobicyclo[1.1.1]pentane-1-carboxamide]: 662 nM; for `Cn1nc(C2CC2)cc1C12CCC(CN(C(=O)C34CC(F)(C3)C4)c3cccc(-c4ccc(NS(C)(=O)=O)cc4)c3)(CC1)CC2` [Example 412, N-((4-(3-cyclopropyl-1-methyl-1H-pyrazol-5-yl)bicyclo[2.2.2]octan-1-yl)methyl)-3-fluoro-N-(4′-(methylsulfonamido)-[1,1′-biphenyl]-3-yl)bicyclo[1.1.1]pentane-1-carboxamide]: 105 nM. With `CCOc1ncc(-c2cccc(N(CC34CCC(c5nc(C(C)(C)C)no5)(CC3)CC4)C(=O)C3CC(O)(C(F)(F)F)C3)c2)cn1` [Example 507, (1S,3S)—N-((4-(3-(tert-butyl)-1,2,4-oxadiazol-5-yl)bicyclo[2.2.2]octan-1-yl)methyl)-N-(3-(2-ethoxypyrimidin-5-yl)phenyl)-3-hydroxy-3-(trifluoromethyl)cyclobutane-1-carboxamide], the EC50 is 188 nM. That is a sub-micromolar value. As to `CC(C)(C)c1nc(C23CCC(CN(C(=O)C4CC(O)(C(F)(F)F)C4)c4cccc(-c5ccc(NS(C)(=O)=O)cc5)c4)(CC2)CC3)no1` [Example 513, (1S,3S)—N-((4-(5-(tert-butyl)-1,2,4-oxadiazol-3-yl)bicyclo[2.2.2]octan-1-yl)methyl)-3-hydroxy-N-(4′-(methylsulfonamido)-[1,1′-biphenyl]-3-yl)-3-(trifluoromethyl)cyclobutane-1-carboxamide], the EC50 under setting [1] worked out at 922 nM. This lies in the sub-micromolar range.
